We go through three compounds from ChEMBL document CHEMBL1158947, “Novel Bishomoscalarane Sesterterpenes from the Sponge Phyllospongia foliascens” (J Nat Prod, 1991).

≈ marks a conversion by molar mass, not a printed value. Calls of active or inactive are those of the source. The rule behind the calls is not given here.

The subject of the test is P388. Put plainly: Cytotoxicity against mouse P388 cells. Type of test: functional, cell-based.

Consider `CC[C@@]1(C)CCC[C@]2(C)[C@H]3CC(=O)[C@]4(C)[C@H]5C(=O)O[C@@H](C)[C@@H]5[C@@H](O)C[C@H]4[C@]3(C)CC[C@@H]12`, for which the outcome was inactive. A word on the IC50: it is the midpoint of a concentration-inhibition curve. Low values mean higher potency, high ones lower potency. Regarding `CC[C@@]1(C)CCC[C@]2(C)[C@H]3C[C@H](O)[C@]4(C)[C@H]5C=CC(=O)C5=CC[C@H]4[C@]3(C)CC[C@@H]12` [PHYLLOFENONE B], the midpoint of inhibition, the IC50, lay at 5 µg/mL (≈ 12.6 µM). In the case of `CC[C@@]1(C)CCC[C@]2(C)[C@H]3C[C@H](O)[C@]4(C)C5=C(CC[C@H]4[C@]3(C)CC[C@@H]12)[C@H](C)OC5=O`, the outcome was inactive.
